{"source": "ChEMBL document CHEMBL4364353", "about": "“Lysophosphatidic Acid Receptor 1 Antagonists for the Treatment of Fibrosis” (ACS Med Chem Lett, 2019)", "biological_target": "Lysophosphatidic acid receptor 1 (Homo sapiens, UniProt Q92633)", "sequence (Q92633 whole entry)": "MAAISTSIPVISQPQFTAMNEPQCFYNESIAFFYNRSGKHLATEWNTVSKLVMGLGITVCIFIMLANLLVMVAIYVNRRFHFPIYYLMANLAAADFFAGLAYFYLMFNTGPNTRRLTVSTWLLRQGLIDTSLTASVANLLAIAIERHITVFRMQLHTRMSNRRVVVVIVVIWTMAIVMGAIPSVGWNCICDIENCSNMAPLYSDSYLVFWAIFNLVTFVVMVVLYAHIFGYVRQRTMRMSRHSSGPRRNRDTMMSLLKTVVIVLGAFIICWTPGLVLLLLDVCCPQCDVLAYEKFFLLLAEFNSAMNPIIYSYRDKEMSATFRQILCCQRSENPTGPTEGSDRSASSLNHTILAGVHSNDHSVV", "test": "Antagonist activity at human LPA1 expressed in CHO cells assessed as reduction in LPA-induced calcium influx incubated for 20 mins", "assay_type": "functional, cell-based", "note": "pIC50: −log10 of the molar value."}
{"compound": "Cc1noc(-c2ccc(O[C@H]3CCC[C@H](C(=O)O)C3)cc2)c1CNC(=O)OCc1ccc(Cl)cc1", "values": [{"measurement": "pIC50", "result": 6.64}]}
